From US20180256673A1, “METHODS FOR TREATING FUNGAL INFECTIONS” (priority 2015, published 2018)
≈ marks a conversion by molar mass, not a printed value. Where “and” joins values, the source holds several entries; their conditions need not be identical. Equal entries are not always repeated. Where two headings read alike, the source gives them in different places.

Assays:
Candida tropicalis = assay: Broth microdilution of invasive fungal isolates (CLSI M27-A3/M38-A2); type: cell-based; conditions: 51 isolates
Candida krusei = assay: as above; type: cell-based; conditions: 16 isolates
Candida orthopsilosis = assay: as above; type: cell-based; conditions: 10 isolates
Candida dubliniensis = assay: as above; type: cell-based; conditions: 11 isolates
C. parapsilosis CP02 = type: cell-based, Candida parapsilosis
Protocol: Spontaneous mutant selection. […] Three individual colonies from each strain were used to start cultures in RPMI. […] One milliliter aliquots were spread onto SDA plates containing drug with sterile glass beads. Starting viable count was enumerated by triplicate plating of serial dilutions of the starting inoculum. […] Glycerol stocks of putative mutant colonies were stored at −80° C. […] Spontaneous mutation frequencies were calculated by dividing the number of resistant colonies on a given plate by the starting inoculum plated. A subset of mutants (weighted heavily towards those selected with CMP1) were then evaluated by MIC and sequencing of FKS gene hot spot regions.

[1] = tested on: Cryptococcus neoformans var. grubii; assay: Broth microdilution of invasive fungal isolates (CLSI M27-A3/M38-A2); type: cell-based; conditions: 19 isolates
[2] = tested on: C. parapsilosis vaginal isolates; assay: Susceptibility testing of VVC clinical isolates at pH 7 and 4 (CLSI M27-A3); type: cell-based, Candida parapsilosis; conditions: 14 isolates, read-out: MIC90
[3] = tested on: C. tropicalis vaginal isolates; assay: as above; type: cell-based; conditions: Candida tropicalis, 13 isolates, read-out: MIC90
C. krusei ATCC 6258 = assay: microbe, parasite or virus in culture; type: cell-based, Candida krusei; conditions: for MIC: Pichia kudriavzevii
Aspergillus fumigatus = assay: Broth microdilution of invasive fungal isolates (CLSI M27-A3/M38-A2), MEC; type: cell-based; conditions: 56 isolates

CC[C@H](C)C[C@H](C)CCCCCCCCC(=O)N[C@H]1C[C@@H](O)[C@@H](NCCN)NC(=O)[C@@H]2[C@@H](O)CCN2C(=O)[C@H]([C@H](O)CCN)NC(=O)[C@H]([C@H](O)[C@@H](O)c2ccc(O)cc2)NC(=O)[C@@H]2C[C@@H](O)CN2C(=O)[C@H]([C@@H](C)O)NC1=O [CAS, caspofungin]
Cumulative % of isolates inhibited at MIC 0.015 μg/mL (Candida tropicalis): (23.5) % | Cumulative % of isolates inhibited at MIC 0.03 μg/mL (Candida tropicalis): (68.6) % | Cumulative % of isolates inhibited at MIC 0.06 μg/mL (Candida tropicalis): (98.0) % | Cumulative % of isolates inhibited at MIC 0.12 μg/mL (Candida tropicalis): (100.0) % | Number of isolates inhibited at MIC 0.015 μg/mL (Candida tropicalis): 12 | Number of isolates inhibited at MIC 0.03 μg/mL (Candida tropicalis): 23 | Number of isolates inhibited at MIC 0.06 μg/mL (Candida tropicalis): 15 | Number of isolates inhibited at MIC 0.12 μg/mL (Candida tropicalis): 1 | MIC50 (Candida tropicalis; Candida tropicalis, read-out: MIC50): 0.03 µg/mL (≈ 0.0274 µM) | MIC90 (Candida tropicalis; Candida tropicalis, read-out: MIC90): 0.06 µg/mL (≈ 0.0549 µM) | Cumulative % of isolates inhibited at MIC 0.06 μg/mL (Candida krusei): (25.0) % | Cumulative % of isolates inhibited at MIC 0.12 μg/mL (Candida krusei): (87.5) % | Cumulative % of isolates inhibited at MIC 0.25 μg/mL (Candida krusei): (100.0) % | Number of isolates inhibited at MIC 0.06 μg/mL (Candida krusei): 4 | Number of isolates inhibited at MIC 0.12 μg/mL (Candida krusei): 10 | Number of isolates inhibited at MIC 0.25 μg/mL (Candida krusei): 2 | MIC50 (Candida krusei; Pichia kudriavzevii, read-out: MIC50): 0.12 µg/mL (≈ 0.11 µM) | MIC90 (Candida krusei; Pichia kudriavzevii, read-out: MIC90): 0.25 µg/mL (≈ 0.229 µM) | Cumulative % of isolates inhibited at MIC 0.06 μg/mL (Candida orthopsilosis): (10.0) % | Cumulative % of isolates inhibited at MIC 0.12 μg/mL (Candida orthopsilosis): (40.0) % | Cumulative % of isolates inhibited at MIC 0.25 μg/mL (Candida orthopsilosis): (70.0) % | Cumulative % of isolates inhibited at MIC 0.5 μg/mL (Candida orthopsilosis): (100.0) % | Number of isolates inhibited at MIC 0.06 μg/mL (Candida orthopsilosis): 1 | Number of isolates inhibited at MIC 0.12 μg/mL (Candida orthopsilosis): 3 | Number of isolates inhibited at MIC 0.25 μg/mL (Candida orthopsilosis): 3 | Number of isolates inhibited at MIC 0.5 μg/mL (Candida orthopsilosis): 3 | MIC50 (Candida orthopsilosis; Lodderomyces orthopsilosis, read-out: MIC50): 0.25 µg/mL (≈ 0.229 µM) | MIC90 (Candida orthopsilosis; Lodderomyces orthopsilosis, read-out: MIC90): 0.5 µg/mL (≈ 0.457 µM) | Cumulative % of isolates inhibited at MIC 0.015 μg/mL (Candida dubliniensis): (9.1) % | Cumulative % of isolates inhibited at MIC 0.03 μg/mL (Candida dubliniensis): (54.5) % | Cumulative % of isolates inhibited at MIC 0.06 μg/mL (Candida dubliniensis): (100.0) % | Number of isolates inhibited at MIC 0.015 μg/mL (Candida dubliniensis): 1 | Number of isolates inhibited at MIC 0.03 μg/mL (Candida dubliniensis): 5 | Number of isolates inhibited at MIC 0.06 μg/mL (Candida dubliniensis): 5 | MIC50 (Candida dubliniensis; Candida dubliniensis, read-out: MIC50): 0.03 µg/mL (≈ 0.0274 µM) | MIC90 (Candida dubliniensis; Candida dubliniensis, read-out: MIC90): 0.06 µg/mL (≈ 0.0549 µM) | Median mutation frequency (C. parapsilosis CP02): <1.04E−08 | Plate concentration (C. parapsilosis CP02; SDA, minimum concentration to cleanly inhibit growth): 1 µg/mL | Freq. (replicate mutation frequency) (C. parapsilosis CP02; replicate plates 1-3): <1.04E−08 (2×) and <9.62E−09 | Cumulative % of isolates inhibited at MIC 8 μg/mL [1]: (21.1) % | Cumulative % of isolates inhibited at MIC >8 μg/mL [1]: (100.0) % | Number of isolates inhibited at MIC 8 μg/mL [1]: 4 | Number of isolates inhibited at MIC >8 μg/mL [1]: 15 | MIC50 ([1]; Cryptococcus neoformans, read-out: MIC50): 8 µg/mL (≈ 7.32 µM) | MIC90 ([1]; Cryptococcus neoformans, read-out: MIC90): 8 µg/mL (≈ 7.32 µM) | MIC90 ([2]; pH 4, 24 h): 1 µg/mL (≈ 0.915 µM) | MIC90 ([2]; pH 4, 48 h): 4 µg/mL (≈ 3.66 µM) | MIC90 ([2]; pH 7, 24 h): 1 µg/mL (≈ 0.915 µM) | MIC90 ([2]; pH 7, 48 h): 2 µg/mL (≈ 1.83 µM) | MIC90 ([3]; pH 4, 24 h): 1 µg/mL (≈ 0.915 µM) | MIC90 ([3]; pH 4, 48 h): 2 µg/mL (≈ 1.83 µM) | MIC90 ([3]; pH 7, 24 h): 1 µg/mL (≈ 0.915 µM) | MIC90 ([3]; pH 7, 48 h): 2 µg/mL (≈ 1.83 µM) | MIC fold-shift (C. krusei ATCC 6258; ATCC 6258, WT to P20): 2 | MIC (C. krusei ATCC 6258; ATCC6258): 0.5 µg/mL (≈ 0.457 µM) | MIC (C. krusei ATCC 6258; ATCC6258, read-out: MIC P20): 1 µg/mL (≈ 0.915 µM) | Cumulative % of isolates inhibited at MEC 0.015 μg/mL (Aspergillus fumigatus): (32.1) % | Cumulative % of isolates inhibited at MEC 0.03 μg/mL (Aspergillus fumigatus): (94.6) %
